{"source": "patent US9249111B2", "about": "“Substituted quinoxalines as B-RAF kinase inhibitors” (NEUPHARMA, INC., priority 2011, dated 2016)"}
{"biological_target": "T1, BRAF V600E (Homo sapiens, UniProt P15056, V600E)", "T1 construct": "purchased Invitrogen", "T1 sequence (P15056 whole entry V600E)": "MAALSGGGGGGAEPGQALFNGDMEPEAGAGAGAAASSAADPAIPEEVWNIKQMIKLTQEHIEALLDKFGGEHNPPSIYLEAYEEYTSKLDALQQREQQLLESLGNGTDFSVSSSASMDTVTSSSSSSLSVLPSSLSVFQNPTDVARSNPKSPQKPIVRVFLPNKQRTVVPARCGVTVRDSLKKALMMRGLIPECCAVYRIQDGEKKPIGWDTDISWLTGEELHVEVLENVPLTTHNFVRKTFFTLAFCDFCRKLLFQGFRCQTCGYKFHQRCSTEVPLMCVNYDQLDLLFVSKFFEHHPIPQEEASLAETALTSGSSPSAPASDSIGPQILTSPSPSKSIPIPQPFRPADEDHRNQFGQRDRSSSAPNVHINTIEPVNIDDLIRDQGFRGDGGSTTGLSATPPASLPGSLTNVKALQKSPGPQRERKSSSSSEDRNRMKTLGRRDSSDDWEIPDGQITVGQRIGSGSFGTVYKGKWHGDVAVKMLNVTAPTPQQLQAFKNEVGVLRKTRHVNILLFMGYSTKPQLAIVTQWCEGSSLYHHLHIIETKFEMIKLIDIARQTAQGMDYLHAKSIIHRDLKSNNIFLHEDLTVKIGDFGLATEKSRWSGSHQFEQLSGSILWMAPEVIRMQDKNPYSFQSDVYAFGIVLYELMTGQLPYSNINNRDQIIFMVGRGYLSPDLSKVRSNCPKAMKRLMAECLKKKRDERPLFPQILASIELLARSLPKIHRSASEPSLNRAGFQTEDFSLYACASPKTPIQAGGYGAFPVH", "experiment": "Z'-LYTE kinase inhibition assay (Invitrogen), BRAF V600E", "assay_type": "biochemical", "conditions": "Z'-LYTE method; read-out: IC50 against BRAF V600E", "method": "(§1) Inhibitory activities of compounds against BRAF or BRAF V600E were measured by Invitrogen using Z′-LYTE® Method as briefly described in the following.\n(§2) 4× Test compounds were dissolved in 1% DMSO. […] ATP solutions were diluted to a 4×ATP working concentration in Kinase Buffer (50 mM HEPES pH 7.5, 0.01% BRIJ-35, 10 mM MgCl2, 1 mM EGTA). Reaction started by 30-second shaking of mixture consisting of 2.5 μL4× test compound, 2.5 μL 2× kinase reaction mixture and 2.5 μL 4×ATP Solution on Bar-coded Corning, low volume NBS, black 384-well plate (Corning Cat. #3676). Then the mixture was incubated for 60-minute at room temperature for the kinase reaction, followed by addition of 5 μL of a 1:1024 dilution of development reagent A and 30-second plate shake. The mixture was then incubated for another 60-minute at room temperature for development reaction. Finally fluorescence was read by plate reader. IC50 was calculated by plotting the concentration of compound vs the percentage of inhibition in treated wells using GraphPad Prism 5.", "units": {"IC50": "µM"}}
{"smiles": "O=C(c1ccc2nccnc2c1)c1c(F)ccc(OCc2ccccc2)c1F", "note": "[Compound C06, (3-(benzyloxy)-2,6-difluorophenyl)(quinoxalin-6-yl)methanone]", "IC50": "< 0.05"}
{"biological_target": "T1, BRAF V600E", "experiment": "Z'-LYTE kinase inhibition assay (Invitrogen), BRAF V600E", "assay_type": "biochemical", "conditions": "compound at 1 μM; Z'-LYTE method", "method": "as §1, §2", "units": {"inhibition at 1 µM": "%"}}
{"smiles": "O=C(c1ccc2nccnc2c1)c1c(F)ccc(OCc2cccc(F)c2)c1F", "note": "[Compound C01, (2,6-difluoro-3-((3-fluorobenzyl)oxy)phenyl)(quinoxalin-6-yl)methanone]", "inhibition at 1 µM": "30 to 89"}
{"smiles": "O=C(c1ccc2nccnc2c1)c1c(F)ccc(OCc2cccc(Cl)c2)c1F", "note": "[Compound C02, (3-((3-chlorobenzyl)oxy)-2,6-difluorophenyl)(quinoxalin-6-yl)methanone]", "inhibition at 1 µM": "30 to 89"}
{"smiles": "COc1ccc(F)c(C(=O)c2ccc3nccnc3c2)c1F", "note": "[Compound C04, (2,6-difluoro-3-methoxyphenyl)(quinoxalin-6-yl)methanone]", "inhibition at 1 µM": "30 to 89"}
{"smiles": "O=C(c1ccc2nccnc2c1)c1c(F)ccc(OCc2ccccc2)c1F", "note": "[Compound C06, (3-(benzyloxy)-2,6-difluorophenyl)(quinoxalin-6-yl)methanone]", "inhibition at 1 µM": "> 89"}
{"biological_target": "T2, BRAF (Homo sapiens, UniProt P15056)", "T2 construct": "purchased Invitrogen", "T2 sequence (P15056 whole entry)": "as the sequence (P15056 whole entry V600E) above, with E600V counted along it", "experiment": "Z'-LYTE kinase inhibition assay (Invitrogen), BRAF", "assay_type": "biochemical", "conditions": "compound at 1 μM; Z'-LYTE method", "method": "as §1, §2", "units": {"inhibition at 1 µM": "%"}}
{"smiles": "O=C(c1ccc2nccnc2c1)c1c(F)ccc(OCc2cccc(F)c2)c1F", "note": "[Compound C01, (2,6-difluoro-3-((3-fluorobenzyl)oxy)phenyl)(quinoxalin-6-yl)methanone]", "inhibition at 1 µM": "30 to 89"}
{"smiles": "O=C(c1ccc2nccnc2c1)c1c(F)ccc(OCc2cccc(Cl)c2)c1F", "note": "[Compound C02, (3-((3-chlorobenzyl)oxy)-2,6-difluorophenyl)(quinoxalin-6-yl)methanone]", "inhibition at 1 µM": "30 to 89"}
{"smiles": "COc1ccc(F)c(C(=O)c2ccc3nccnc3c2)c1F", "note": "[Compound C04, (2,6-difluoro-3-methoxyphenyl)(quinoxalin-6-yl)methanone]", "inhibition at 1 µM": "< 30"}
{"smiles": "O=C(c1ccc2nccnc2c1)c1c(F)ccc(OCc2ccccc2)c1F", "note": "[Compound C06, (3-(benzyloxy)-2,6-difluorophenyl)(quinoxalin-6-yl)methanone]", "inhibition at 1 µM": "30 to 89"}
{"test_system": "A549 cells", "experiment": "MTT cell growth inhibition assay, A549 cells", "assay_type": "cell-based", "conditions": "Homo sapiens, 72 h compound exposure", "method": "(§3) Inhibition of cell growth by compounds was measured using MTT assay (Mosmann, T., Journal of Immunological Methods, 1983, 65, 55-63). Tumor cell lines were purchased from ATCC (American Type Culture Collection, Manassas, Va.). All cell lines were maintained in RPMI 1640 (Hyclone) supplemented with 10% fetal bovine serum (FBS, Hyclone), glutamine (2 mM, Hyclone), and antibiotics (penicillin 100 U/mL and streptomycin 50 μg/mL) at 37° C. in a humidified atmosphere of 5% CO2 in air. Taxol (as a positive control, Sigma) and compounds were dissolved in DMSO (Sigma), and the final concentration of DMSO in the medium was 1%. Tumor cells were plated in 96-well plates at densities of about 4000 cells/well of a 96-well plate and allowed to adhere/grow for 24 h. They were then treated with various concentrations of drug for 72 h. 3-(4,5-Dimethylthiazol-2-yl)-2,5-diphenyltetrazolium bromide (MTT, Sigma) was used to determine the number of viable cells at the time of compound addition and the number of cells remaining after 72 h compound exposure. The number of cells remaining after 72 h was compared to the number of viable cells at the time of compound addition by measuring the absorbance at 570 nm, allowing for the calculation of growth inhibition.\n(§4) All concentrations of compounds were tested in triplicate and controls were averaged over 4 wells. IC50 was calculated by plotting the concentration of compound vs the percentage of inhibition in treated wells using GraphPad Prism 5. […] The scale utilized in Table 2 is as follows: […], ++ between 1000 and 5000 nM, and + greater than 5000 nM.", "units": {"IC50": "µM"}}
{"smiles": "O=C(c1ccc2nccnc2c1)c1c(F)ccc(OCc2cccc(F)c2)c1F", "note": "[Compound C01, (2,6-difluoro-3-((3-fluorobenzyl)oxy)phenyl)(quinoxalin-6-yl)methanone]", "IC50": "> 5"}
{"smiles": "O=C(c1ccc2nccnc2c1)c1c(F)ccc(OCc2cccc(Cl)c2)c1F", "note": "[Compound C02, (3-((3-chlorobenzyl)oxy)-2,6-difluorophenyl)(quinoxalin-6-yl)methanone]", "IC50": "> 5"}
{"smiles": "O=C(c1ccc2nccnc2c1)c1c(F)ccc(O)c1F", "note": "[Compound C03, (2,6-difluoro-3-hydroxyphenyl)(quinoxalin-6-yl)methanone]", "IC50": "1 to 5"}
{"smiles": "COc1ccc(F)c(C(=O)c2ccc3nccnc3c2)c1F", "note": "[Compound C04, (2,6-difluoro-3-methoxyphenyl)(quinoxalin-6-yl)methanone]", "IC50": "1 to 5"}
{"smiles": "O=C(c1ccc2ncc(Cl)nc2c1)c1c(F)ccc(O)c1F", "note": "[Compound C05, (3-chloroquinoxalin-6-yl)(2,6-difluoro-3-hydroxyphenyl)methanone]", "IC50": "1 to 5"}
{"smiles": "O=C(c1ccc2nccnc2c1)c1c(F)ccc(OCc2ccccc2)c1F", "note": "[Compound C06, (3-(benzyloxy)-2,6-difluorophenyl)(quinoxalin-6-yl)methanone]", "IC50": "< 1"}
{"smiles": "O=C(c1ccc2ncc(-c3cccnc3)nc2c1)c1c(F)ccc(O)c1F", "note": "[Compound C07, (2,6-difluoro-3-hydroxyphenyl)(3-(pyridin-3-yl)quinoxalin-6-yl)methanone]", "IC50": "1 to 5"}
{"smiles": "O=C(c1ccc2ncc(-c3ccccc3)nc2c1)c1c(F)ccc(O)c1F", "note": "[Compound C08, (2,6-difluoro-3-hydroxyphenyl)(3-phenylquinoxalin-6-yl)methanone]", "IC50": "1 to 5"}
{"smiles": "N#Cc1cnc2ccc(C(=O)c3c(F)ccc(O)c3F)cc2n1", "note": "[Compound C09, 7-(2,6-difluoro-3-hydroxybenzoyl)quinoxaline-2-carbonitrile]", "IC50": "1 to 5"}
{"smiles": "COc1cnc2ccc(C(=O)c3c(F)ccc(O)c3F)cc2n1", "note": "[Compound C10, (2,6-difluoro-3-hydroxyphenyl)(3-methoxyquinoxalin-6-yl)methanone]", "IC50": "1 to 5"}
{"test_system": "A375 cells", "experiment": "MTT cell growth inhibition assay, A375 cells", "assay_type": "cell-based", "conditions": "Homo sapiens, A-375, 72 h compound exposure", "method": "as §3, §4", "units": {"IC50": "µM"}}
{"smiles": "O=C(c1ccc2nccnc2c1)c1c(F)ccc(OCc2cccc(F)c2)c1F", "note": "[Compound C01, (2,6-difluoro-3-((3-fluorobenzyl)oxy)phenyl)(quinoxalin-6-yl)methanone]", "IC50": "> 5"}
{"smiles": "O=C(c1ccc2nccnc2c1)c1c(F)ccc(OCc2cccc(Cl)c2)c1F", "note": "[Compound C02, (3-((3-chlorobenzyl)oxy)-2,6-difluorophenyl)(quinoxalin-6-yl)methanone]", "IC50": "> 5"}
{"smiles": "O=C(c1ccc2nccnc2c1)c1c(F)ccc(O)c1F", "note": "[Compound C03, (2,6-difluoro-3-hydroxyphenyl)(quinoxalin-6-yl)methanone]", "IC50": "< 1"}
{"smiles": "COc1ccc(F)c(C(=O)c2ccc3nccnc3c2)c1F", "note": "[Compound C04, (2,6-difluoro-3-methoxyphenyl)(quinoxalin-6-yl)methanone]", "IC50": "1 to 5"}
{"smiles": "O=C(c1ccc2ncc(Cl)nc2c1)c1c(F)ccc(O)c1F", "note": "[Compound C05, (3-chloroquinoxalin-6-yl)(2,6-difluoro-3-hydroxyphenyl)methanone]", "IC50": "< 1"}
{"smiles": "O=C(c1ccc2nccnc2c1)c1c(F)ccc(OCc2ccccc2)c1F", "note": "[Compound C06, (3-(benzyloxy)-2,6-difluorophenyl)(quinoxalin-6-yl)methanone]", "IC50": "< 1"}
{"smiles": "O=C(c1ccc2ncc(-c3cccnc3)nc2c1)c1c(F)ccc(O)c1F", "note": "[Compound C07, (2,6-difluoro-3-hydroxyphenyl)(3-(pyridin-3-yl)quinoxalin-6-yl)methanone]", "IC50": "1 to 5"}
{"smiles": "O=C(c1ccc2ncc(-c3ccccc3)nc2c1)c1c(F)ccc(O)c1F", "note": "[Compound C08, (2,6-difluoro-3-hydroxyphenyl)(3-phenylquinoxalin-6-yl)methanone]", "IC50": "< 1"}
{"smiles": "N#Cc1cnc2ccc(C(=O)c3c(F)ccc(O)c3F)cc2n1", "note": "[Compound C09, 7-(2,6-difluoro-3-hydroxybenzoyl)quinoxaline-2-carbonitrile]", "IC50": "1 to 5"}
{"smiles": "COc1cnc2ccc(C(=O)c3c(F)ccc(O)c3F)cc2n1", "note": "[Compound C10, (2,6-difluoro-3-hydroxyphenyl)(3-methoxyquinoxalin-6-yl)methanone]", "IC50": "1 to 5"}
